Test results as given in paper PMC6920997, “Total Phenolic and Flavonoid Content and Biological Activities of Extracts and Isolated Compounds of Cytisus villosus Pourr” (Biomolecules, 2019).
Converted amounts (≈) assume the structure as drawn.

Assays:
κ opioid receptor = κ opioid receptor (Homo sapiens, UniProt P41145); type: binding
iNOS = test: Inhibition of iNOS (intracellular NO production) in RAW 264.7 macrophages; type: cell-based; conditions: Mus musculus, RAW264.7; RAW 264.7 cells; NA = no activity at 25 µg/mL (pure compounds) or 100 µg/mL (extracts)
Description: The extracts and isolated compounds of C. villosus were evaluated in terms of their interaction with cellular targets related to inflammation and metabolic disorders, such as iNOS and NF-κB. The inhibition of intracellular NO production as a result of iNOS activity was assayed in mouse macrophages (RAW 264.7cells). Cytotoxicity of test samples to macrophages was also determined in parallel to check if the inhibition of iNOS was due to cytotoxic effects.

Candida albicans = test: Antifungal assay C. albicans; type: cell-based; conditions: pure compounds
Description: (§1) Extracts and pure compounds were tested for their antimicrobial activity against Staphylococcus aureus, methicillin-resistant S. aureus (MRSA), Escherichia coli, Pseudomonas aeruginosa, and Mycobacterium intracellulare. The antifungal activities were evaluated against a panel of pathogenic fungi, including Candida albicans, C. glabrata, C. krusei, Aspergillus fumigatus, and Cryptococcus neoformans, associated with opportunistic infections.

δ opioid receptor = δ opioid receptor (Homo sapiens, UniProt P41143); test: Radioligand displacement δ opioid receptor; type: binding
Sequence of δ opioid receptor (P41143 whole entry): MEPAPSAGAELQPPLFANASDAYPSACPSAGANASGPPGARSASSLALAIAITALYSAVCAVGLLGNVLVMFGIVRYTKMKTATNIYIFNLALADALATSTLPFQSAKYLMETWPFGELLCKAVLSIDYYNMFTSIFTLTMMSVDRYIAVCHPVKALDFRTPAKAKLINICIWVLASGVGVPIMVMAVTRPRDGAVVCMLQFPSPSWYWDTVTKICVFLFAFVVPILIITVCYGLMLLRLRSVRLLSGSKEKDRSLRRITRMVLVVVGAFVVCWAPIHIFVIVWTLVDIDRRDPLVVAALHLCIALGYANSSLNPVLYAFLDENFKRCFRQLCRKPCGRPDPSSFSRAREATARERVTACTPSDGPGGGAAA

P. falciparum (W2 Clone) = test: Antimalarial assay, chloroquine-resistant W2 clone; type: cell-based, Plasmodium falciparum; conditions: selectivity index = IC50 for cytotoxicity/IC50 for antimalarial activity
Excerpt: (§2) The in vitro antileishmanial and antitrypanosomal assays were done on cell cultures of L. donovani promastigotes, axenic amastigotes, THP1-amastigotes, and Trypanosoma brucei trypomastigotes by Alamar Blue assays. The conditions for seeding the THP1 cells, exposure to the test samples, and evaluation of cytotoxicity were the same as described in parasite-rescue and transformation assay. IC50 and IC90 values were computed from the dose response curves using XLfit software (XLfit 5.3.1, IDBS analytical, Boston MA, USA). DFMO (difluoromethylornithine) was used as the positive control. The antiprotozoal activity of C. villosus extracts and isolated compounds were evaluated in vitro against L. donovani promastigotes, axenic amastigotes, and intracellular amastigotes in THP1 cells. The extracts and some isolated compounds were also evaluated against T. brucei trypomastigote forms. All the extracts and compounds were simultaneously tested against THP1 cell for determination of general cytotoxicity. The extracts and isolated compounds were also evaluated for their antimalarial activity against chloroquine-sensitive (D6, Sierra Leone) and chloroquine-resistant strains (W2, Indochina) strains of Plasmodium falciparum. Furthermore, they were tested for cytotoxicity against the Vero cell line.

P. falciparum (D6 Clone) = test: Antimalarial assay, chloroquine-sensitive D6 clone; type: cell-based, Plasmodium falciparum; conditions: selectivity index = IC50 for cytotoxicity/IC50 for antimalarial activity
Excerpt: as §2

Cryptococcus neoformans = test: Antifungal assay C. neoformans; type: cell-based; conditions: pure compounds
Description: as §1

μ opioid receptor = μ opioid receptor (Homo sapiens, UniProt P35372); type: binding
Sequence of μ opioid receptor (P35372 whole entry): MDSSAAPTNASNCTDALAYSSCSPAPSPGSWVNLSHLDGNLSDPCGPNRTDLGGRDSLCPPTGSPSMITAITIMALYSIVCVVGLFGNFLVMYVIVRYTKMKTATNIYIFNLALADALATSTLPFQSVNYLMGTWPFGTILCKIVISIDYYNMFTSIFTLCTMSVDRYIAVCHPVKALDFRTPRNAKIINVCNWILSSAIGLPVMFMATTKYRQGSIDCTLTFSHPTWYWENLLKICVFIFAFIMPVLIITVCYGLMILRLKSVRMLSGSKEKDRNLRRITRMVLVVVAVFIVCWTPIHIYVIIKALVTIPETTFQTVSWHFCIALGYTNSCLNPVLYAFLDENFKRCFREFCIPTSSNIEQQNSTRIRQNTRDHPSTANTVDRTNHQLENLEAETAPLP

Pseudomonas aeruginosa = test: Antibacterial assay P. aeruginosa; type: cell-based; conditions: pure compounds
Description: as §1

[1] = Cytotoxicity against Vero cell line (antimalarial counterscreen); type: cell-based; conditions: African green monkey
Excerpt: as §2

NF-κB = test: Reporter gene assay for the inhibition of NF-κB; type: cell-based; conditions: PMA-treated cells, luciferase reporter; NA = no activity at 25 µg/mL (pure compounds) or 100 µg/mL (extracts); read-out: Inhibition of NF-kB IC50
Description: Reporter gene assay for the inhibition of NF-κB Activity was performed as described earlier. In brief, cells transfected with NF-κB luciferase plasmid construct were plated in 96-well plates at a density of 1.25 × 10^5 cells/well. After 24 h, cells were treated with the test compounds and, after incubating for 30 min, phorbol 12-myristate 13-acetate (PMA) (Sigma-Aldrich, Burlington MA, USA) (70 ng/mL) was added and further incubated for 6−8 h. Luciferase activity was measured as described above. Percent decrease in luciferase activity was calculated relative to the vehicle control. Parthenolide (Sigma-Aldrich, Burlington MA, USA) was used as a positive control.

Staphylococcus aureus = test: Antibacterial assay S. aureus; type: cell-based; conditions: pure compounds
Description: as §1

Escherichia coli = test: Antibacterial assay E. coli; type: cell-based; conditions: pure compounds
Description: as §1

Sequence of κ opioid receptor (P41145 whole entry): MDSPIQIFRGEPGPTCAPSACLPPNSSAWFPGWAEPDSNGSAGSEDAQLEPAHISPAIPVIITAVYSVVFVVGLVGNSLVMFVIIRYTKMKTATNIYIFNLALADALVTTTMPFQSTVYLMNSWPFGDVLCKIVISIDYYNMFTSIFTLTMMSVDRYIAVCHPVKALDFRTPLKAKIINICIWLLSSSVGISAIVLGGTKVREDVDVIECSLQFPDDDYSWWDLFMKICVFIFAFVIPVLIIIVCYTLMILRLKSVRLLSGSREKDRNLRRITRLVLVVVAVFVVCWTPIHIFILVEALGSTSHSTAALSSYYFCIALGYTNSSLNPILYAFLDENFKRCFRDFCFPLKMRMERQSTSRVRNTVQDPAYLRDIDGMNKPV

O=c1cc(-c2ccccc2)oc2cc(O)cc(O)c12 [Compound 2, chrysin]
Opioid Receptors (%) κ radioligand displacement (κ opioid receptor): 12.8% | IC50 (iNOS): > 25 µg/mL | IC50 (Candida albicans): > 20 µg/mL | Opioid Receptors (%) δ radioligand displacement (δ opioid receptor): 8.7% | SI (second SI column of Table 7, presumably W2) (P. falciparum (W2 Clone)): 1 | SI (first SI column of Table 7, presumably D6) (P. falciparum (D6 Clone)): 1 | IC50 (Cryptococcus neoformans): > 20 µg/mL | Opioid Receptors (%) μ radioligand displacement (μ opioid receptor): 12.2% | IC50 (Pseudomonas aeruginosa): > 20 µg/mL | IC50 [1]: > 4.76 µg/mL | IC50 (NF-κB): 38 µg/mL (≈ 149 µM) | IC50 (Staphylococcus aureus): > 20 µg/mL | IC50 (Escherichia coli): > 20 µg/mL
